Measured values from patent US20110306606A1, “NOVEL 2,6-SUBSTITUTED-3-NITROPYRIDINE DERIVATIVE, METHOD FOR PREPARING SAME, AND PHARMACEUTICAL COMPOSITION INCLUDING SAME” (priority 2008, published 2011).

Tested on: Osteoblasts (Calvarial cells)
Experiment: Cytotoxicity test (MTT)
Settings: 1 μM compound, 72 hours, in comparison with vehicle control

SMILES | Cell viability (%) Calvarial cell [%]
CC1=NCCN1c1ccc([N+](=O)[O-])c(Nc2ccc(N3CCC(O)CC3)c(F)c2)n1 [Compound 240, 2-{[3-fluoro-4-(4-hydroxypiperidino)]phenylamino}-6-[(2-methyl-4,5-dihydro)imidazol-1-yl]-3-nitropyridine] | 97
CC(C)(C)Nc1ccc([N+](=O)[O-])c(Nc2ccc(N3CCC(O)CC3)c(F)c2)n1 [Compound 243, 2-{[3-fluoro-4-(4-hydroxypiperidino)]phenylamino}-6-(t-butylamino)-3-nitropyridine] | 97
O=[N+]([O-])c1ccc(N2CCNCC2)nc1Nc1ccc(N2CCC(O)CC2)c(F)c1 [Compound 245, 2-{[3-fluoro-4-(4-hydroxypiperidino)]phenylamino}-6-(piperazin-1-yl)-3-nitropyridine] | 101
O=[N+]([O-])c1ccc(N2CCOCC2)nc1Nc1ccc(N2CCC(O)CC2)c(F)c1 [Compound 247, 2-{[3-fluoro-4-(4-hydroxypiperidino)]phenylamino}-6-morpholino-3-nitropyridine] | 94
CNc1ccc([N+](=O)[O-])c(Nc2ccc(N3CCC(N)CC3)c(F)c2)n1 [Compound 248, 2-{[3-fluoro-4-(4-aminopiperidino)]phenylamino}-6-(methylamino)-3-nitropyridine] | 95
CC(C)Nc1ccc([N+](=O)[O-])c(Nc2ccc(N3CCC(N)CC3)c(F)c2)n1 [Compound 249, 2-{[3-fluoro-4-(4-aminopiperidino)]phenylamino}-6-(isopropylamino)-3-nitropyridine] | 101
CC(C)CNc1ccc([N+](=O)[O-])c(Nc2ccc(N3CCC(N)CC3)c(F)c2)n1 [Compound 250, 2-{[3-fluoro-4-(4-aminopiperidino)]phenylamino}-6-(isobutylamino)-3-nitropyridine] | 85
NC1CCN(c2ccc(Nc3nc(N4CCC(O)CC4)ccc3[N+](=O)[O-])cc2F)CC1 [Compound 251, 2-{[3-fluoro-4-(4-aminopiperidino)]phenylamino}-6-(4-hydroxypiperidino)-3-nitropyridine] | 97
CN1CCN(c2ccc([N+](=O)[O-])c(Nc3ccc(N4CCC(N)CC4)c(F)c3)n2)CC1 [Compound 254, 2-{[3-fluoro-4-(4-aminopiperidino)]phenylamino}-6-(4-methylpiperazin-1-yl)-3-nitropyridine] | 101
NC1CCN(c2ccc(Nc3nc(N4CCOCC4)ccc3[N+](=O)[O-])cc2F)CC1 [Compound 255, 2-{[3-fluoro-4-(4-aminopiperidino)]phenylamino}-6-morpholino-3-nitropyridine] | 100
NC1CCN(c2ccc([N+](=O)[O-])c(Nc3ccc(N4CCC(N)CC4)c(F)c3)n2)CC1 [Compound 256] | 104
NC1CCN(c2ccc(Nc3nc(NCCCN4CCOCC4)ccc3[N+](=O)[O-])cc2F)CC1 [Compound 260, 2-{[3-fluoro-4-(4-aminopiperidino)]phenylamino}-6-[(3-morpholin-1-yl)propylamino]-3-nitropyridine] | 107
CNc1ccc([N+](=O)[O-])c(Nc2ccc(N3CCCCC3C)c(F)c2)n1 (stereo not drawn) [Compound 261, 2-{[3-fluoro-4-(2-methylpiperidino)]phenylamino}-6-(methylamino)-3-nitropyridine] | 114
CC(C)Nc1ccc([N+](=O)[O-])c(Nc2ccc(N3CCCCC3C)c(F)c2)n1 (stereo not drawn) [Compound 262, 2-{[3-fluoro-4-(2-methylpiperidino)]phenylamino}-6-(isopropylamino)-3-nitropyridine] | 109
CC(C)CNc1ccc([N+](=O)[O-])c(Nc2ccc(N3CCCCC3C)c(F)c2)n1 (stereo not drawn) [Compound 263, 2-{[3-fluoro-4-(2-methylpiperidino)]phenylamino}-6-(isobutylamino)-3-nitropyridine] | 108
CC1CCCCN1c1ccc(Nc2nc(NC(C)(C)C)ccc2[N+](=O)[O-])cc1F (stereo not drawn) [Compound 264, 2-{[3-fluoro-4-(2-methylpiperidino)]phenylamino}-6-(t-butylamino)-3-nitropyridine] | 117
CC1CCCCN1c1ccc(Nc2nc(N3CCC(O)CC3)ccc2[N+](=O)[O-])cc1F (stereo not drawn) [Compound 265, 2-{[3-fluoro-4-(2-methylpiperidino)]phenylamino}-6-(4-hydroxypiperidino)-3-nitropyridine] | 104
CC1=NCCN1c1ccc([N+](=O)[O-])c(Nc2ccc(N3CCCCC3C)c(F)c2)n1 (stereo not drawn) [Compound 266] | 121
CC1CCCCN1c1ccc(Nc2nc(N3CCNCC3)ccc2[N+](=O)[O-])cc1F (stereo not drawn) [Compound 267, 2-{[3-fluoro-4-(2-methylpiperidino)]phenylamino}-6-(piperazin-1-yl)-3-nitropyridine] | 107
CC1CCCCN1c1ccc(Nc2nc(N3CCN(C)CC3)ccc2[N+](=O)[O-])cc1F (stereo not drawn) [Compound 268, 2-{[3-fluoro-4-(2-methylpiperidino)]phenylamino}-6-(4-methylpiperazin-1-yl)-3-nitropyridine] | 104
CC1CCCCN1c1ccc(Nc2nc(N3CCOCC3)ccc2[N+](=O)[O-])cc1F (stereo not drawn) [Compound 269, 2-{[3-fluoro-4-(2-methylpiperidino)]phenylamino}-6-morpholino-3-nitropyridine] | 113
CC1CCCCN1c1ccc(Nc2nc(N3CCC(N)CC3)ccc2[N+](=O)[O-])cc1F (stereo not drawn) [Compound 270, 2-{[3-fluoro-4-(2-methylpiperidino)]phenylamino}-6-(4-aminopiperidino)-3-nitropyridine] | 95
CC1CCCCN1c1ccc(Nc2nc(NCc3ccncc3)ccc2[N+](=O)[O-])cc1F (stereo not drawn) [Compound 271, 2-{[3-fluoro-4-(2-methylpiperidino)]phenylamino}-6-[(4-pyridyl)methylamino]-3-nitropyridine] | 107
CC1CCCCN1c1ccc(Nc2nc(NCCCn3ccnc3)ccc2[N+](=O)[O-])cc1F (stereo not drawn) [Compound 272, 2-{[3-fluoro-4-(2-methylpiperidino)]phenylamino}-6-[(3-imidazol-1-yl)propylamino]-3-nitropyridine] | 98
CC1CCCCN1c1ccc(Nc2nc(NCCN3CCOCC3)ccc2[N+](=O)[O-])cc1F (stereo not drawn) [Compound 273, 2-{[3-fluoro-4-(2-methylpiperidino)]phenylamino}-6-[2-(morpholin-1-yl)ethylamino]-3-nitropyridine] | 115
CC1CCCCN1c1ccc(Nc2nc(NCCCN3CCOCC3)ccc2[N+](=O)[O-])cc1F (stereo not drawn) [Compound 274, 2-{[3-fluoro-4-(2-methylpiperidino)]phenylamino}-6-[(3-morpholin-1-yl)propylamino]-3-nitropyridine] | 102
CNc1ccc([N+](=O)[O-])c(Nc2ccc(N3CCCC(CO)C3)c(F)c2)n1 (stereo not drawn) [Compound 275, 2-{[3-fluoro-4-(3-hydroxymethylpiperidino)]phenylamino}-6-(methylamino)-3-nitropyridine] | 121
